Results taken from publication PMC10010643 (Cancer Chemotherapy and Pharmacology, 2023).

Assay: Safety and tolerability, Part A single ascending-dose phase in healthy participants
Format: in vivo, human
Experimental: A further two cohorts were recruited. […] Each individual participated in one treatment period only, with the exception of the food-effect cohort (cohort A3) in which there were two treatment periods separated by at least 7 days washout. Participants resided at the Clinical Research Unit (CRU) from 1 day ahead of dosing (day − 1) to day 3 and returned for a follow-up visit 5–7 days after their final dose. For all cohorts, doses were administered in the fasted state in the morning of day 1 of Treatment Period 1. In the food-effect cohort, doses were given 30 min after the start of a high-fat breakfast (973 calories total: approximately 150 protein calories, 250 carbohydrate calories, and 500–600 fat calories) on day 1 of Treatment Period 2. For cohorts A1 to A5 in Treatment Period 1, dosing occurred such that one pair (one active and one placebo) were dosed at least 24 h before the remaining participants. Continuation to dose those who remained was at the investigator’s discretion. Escalating doses were administered following satisfactory sponsor and investigator review of the safety and tolerability data (up to 48 h post-final dose) and PK data (up to 24 h post-final dose) from the lower dose levels.
Safety and tolerability assessments included adverse event (AE) monitoring, physical examinations, laboratory assessments (hematology, clinical chemistry, and urinalysis), vital signs (blood pressure, pulse rate, and body temperature) and ECG.
No formal statistical assessment was performed for the safety analysis.

[1] = Part A 50 mg (1 x 50 mg), fasted
[2] = Part A 50 mg (10 x 5 mg), fasted

## OC[C@H]1O[C@H](Sc2cncc(Br)c2)[C@H](O)[C@@H](n2cc(-c3cc(F)c(F)c(F)c3)nn2)[C@H]1O [GB1211]
[1]
  TEAE Pain, participants: 0 n (%)
  TEAE Rash, participants: 0 n (%)
  TEAE Respiratory, thoracic and mediastinal disorders, no. of AEs: 1
  TEAE Respiratory, thoracic and mediastinal disorders, participants: 1 (16.7%) n (%)
  TEAE Skin and subcutaneous tissue disorders, participants: 0 n (%)
  TEAE Wound, participants: 0 n (%)
Part A 50 mg (1 x 50 mg), fed
  TEAE Back pain, participants: 0 n (%)
  TEAE Constipation, participants: 0 n (%)
  TEAE Cough, participants: 0 n (%)
  TEAE Decreased appetite, participants: 0 n (%)
  TEAE Diarrhea, participants: 0 n (%)
  TEAE Dry mouth, participants: 0 n (%)
  TEAE Dry skin, no. of AEs: 1
  TEAE Dry skin, participants: 1 (16.7%) n (%)
  TEAE Dyspepsia, participants: 0 n (%)
  TEAE Gastrointestinal disorders, participants: 0 n (%)
  TEAE General disorders and administration site conditions, participants: 0 n (%)
  TEAE Headache, participants: 0 n (%)
  TEAE Infections and infestations, participants: 0 n (%)
  TEAE Injury, poisoning and procedural complications, participants: 0 n (%)
  TEAE Medical device site reaction, participants: 0 n (%)
  TEAE Metabolism and nutrition disorders, participants: 0 n (%)
  TEAE Musculoskeletal and connective tissue disorders, participants: 0 n (%)
  TEAE Nasopharyngitis, participants: 0 n (%)
  TEAE Nervous system disorders, participants: 0 n (%)
  TEAE Pain, participants: 0 n (%)
  TEAE Rash, participants: 0 n (%)
  TEAE Respiratory, thoracic and mediastinal disorders, participants: 0 n (%)
  TEAE Skin and subcutaneous tissue disorders, no. of AEs: 1
  TEAE Skin and subcutaneous tissue disorders, participants: 1 (16.7%) n (%)
  TEAE Wound, participants: 0 n (%)
[2]
  TEAE Back pain, no. of AEs: 1
  TEAE Back pain, participants: 1 (16.7%) n (%)
  TEAE Constipation, participants: 0 n (%)
  TEAE Cough, participants: 0 n (%)
  TEAE Decreased appetite, participants: 0 n (%)
  TEAE Diarrhea, participants: 0 n (%)
  TEAE Dry mouth, participants: 0 n (%)
  TEAE Dry skin, participants: 0 n (%)
  TEAE Dyspepsia, participants: 0 n (%)
  TEAE Gastrointestinal disorders, participants: 0 n (%)
  TEAE General disorders and administration site conditions, participants: 0 n (%)
  TEAE Headache, participants: 0 n (%)
  TEAE Infections and infestations, participants: 0 n (%)
  TEAE Injury, poisoning and procedural complications, participants: 0 n (%)
  TEAE Medical device site reaction, participants: 0 n (%)
  TEAE Metabolism and nutrition disorders, participants: 0 n (%)
  TEAE Musculoskeletal and connective tissue disorders, no. of AEs: 1
  TEAE Musculoskeletal and connective tissue disorders, participants: 1 (16.7%) n (%)
  TEAE Nasopharyngitis, participants: 0 n (%)
  TEAE Nervous system disorders, participants: 0 n (%)
  TEAE Pain, participants: 0 n (%)
  TEAE Rash, participants: 0 n (%)
  TEAE Respiratory, thoracic and mediastinal disorders, participants: 0 n (%)
  TEAE Skin and subcutaneous tissue disorders, participants: 0 n (%)
  TEAE Wound, participants: 0 n (%)
Part A 100 mg, fasted
  TEAE Back pain, participants: 0 n (%)
  TEAE Constipation, participants: 0 n (%)
  TEAE Cough, participants: 0 n (%)
  TEAE Decreased appetite, participants: 0 n (%)
  TEAE Diarrhea, participants: 0 n (%)
  TEAE Dry mouth, participants: 0 n (%)
  TEAE Dry skin, participants: 0 n (%)
  TEAE Dyspepsia, no. of AEs: 1
  TEAE Dyspepsia, participants: 1 (16.7%) n (%)
  TEAE Gastrointestinal disorders, no. of AEs: 1
  TEAE Gastrointestinal disorders, participants: 1 (16.7%) n (%)
  TEAE General disorders and administration site conditions, participants: 0 n (%)
  TEAE Headache, participants: 0 n (%)
  TEAE Infections and infestations, no. of AEs: 1
  TEAE Infections and infestations, participants: 1 (16.7%) n (%)
  TEAE Injury, poisoning and procedural complications, participants: 0 n (%)
  TEAE Medical device site reaction, participants: 0 n (%)
  TEAE Metabolism and nutrition disorders, participants: 0 n (%)
  TEAE Musculoskeletal and connective tissue disorders, participants: 0 n (%)
  TEAE Nasopharyngitis, no. of AEs: 1
  TEAE Nasopharyngitis, participants: 1 (16.7%) n (%)
  TEAE Nervous system disorders, participants: 0 n (%)
